Paper PMC7459823, “Characterization of Five Novel Anti-MRSA Compounds Identified Using a Whole-Animal Caenorhabditis elegans/Galleria mellonella Sequential-Screening Approach” (Antibiotics, 2020)
≈ marks a conversion by molar mass, not a printed value. Read-outs that look alike come from different tables or passages of the source.

Legend:
[1] = tested on: MRSA-MW2 infection of C. elegans; experiment: C. elegans–MRSA-MW2 high-throughput screen (Z-score, alive versus dead worms); format: in vivo, Caenorhabditis elegans; conditions: screening concentration 2.86 µg/mL, hits Z > 2
Text: The five compounds: (4,4′,4″-(4-propyl-[1H]-pyrazole-1,3,5-triyl)trisphenol, PPT; (1S,2S)-2-[2-[[3-(1H-benzimidazol-2-yl)propyl]methylamino]ethyl]-6-fluoro-1,2,3,4-tetrahydro-1-(1-methylethyl)-2- naphthalenyl cyclopropanecarboxylate dihydrochloride, NNC; 4,5,6,7-tetrabromobenzotriazole, TBB; 3-[2-[2-chloro-4-[3-(2,6-dichlorophenyl)-5-(1-methylethyl)-4-isoxazolyl]methoxy]phenyl] ethenyl] benzoic acid, GW4064; and N-(cyclopropylmethoxy)-3,4,5-trifluoro-2-[(4-iodo-2-methylphenyl)amino] benzamide, PD198306) were purchased from Tocris Bioscience at the following levels of purity: PPT: >99.7%, NNC: >98%, TBB: >99%, GW4064: >97%, and PD198306: 98.8%. […] Hits were identified based on Z-scores. Z-scores are calculated from the ratio of alive versus dead worms after treatment with test compounds and represents the number of standard deviations (SD) the test compound differs from the mean using the formula Z = (x − μ)/σ; where x is the raw sample score, μ is the mean of the population and σ is the standard deviation of the population. Samples with Z > 2σ are considered hits.

[2] = tested on: Enterococcus faecium; experiment: Broth microdilution MIC, Enterococcus faecium; format: cell-based; conditions: read-out: MIC
Description: (§1) In vitro antibacterial activities were determined using the broth microdilution method. Assays were performed as described in Clinical and Laboratory Standards Institute protocols in triplicate using cation-adjusted Muller–Hinton broth (Becton Dickinson and Company, Franklin Lakes, NJ, USA) in 96-well plates with a total assay volume of 100 µL. Two-fold serial dilutions of test compounds were prepared over the concentration range of 1–64 µg/mL. The bacterial concentration was adjusted to OD600 = 0.06. […] A 10 µL aliquot from each well in the MIC assays was plated onto Muller–Hinton agar (Becton Dickinson and Company, Franklin Lakes, NJ, USA) and incubated overnight at 37 °C. The lowest concentration of compound for which no growth was observed on agar plates was reported as the minimal bactericidal concentration (MBC).

[3] = tested on: clinical S. aureus isolate BF2; experiment: Broth microdilution MIC, clinical S. aureus isolate BF2; format: cell-based; conditions: Staphylococcus aureus; BF2; read-out: MIC
Description: as §1

[4] = tested on: MKN-28; conditions: human, 24 h
Description: (§2) Mammalian cell lines HepG2 (hepatic cells), A549 (epithelial cells), and MKN-28 (gastric cells) were used to measure the anti-proliferative properties of test compounds, as described elsewhere [28]. Cells were grown in Dulbecco’s Modified Eagle Medium (DMEM) (Gibco, Waltham, MA, USA) supplemented with 10% Fetal Bovine Serum (FBS) (Gibco, Waltham, MA, USA) and 1% penicillin/streptomycin (Gibco, Waltham, MA, USA) and maintained at 37 °C in 5% CO2. After harvesting, the cells were suspended in DMEM and 100 µL was added to the wells of 96-well plates. The test compounds were serially diluted in serum and antibiotic free DMEM, added to the monolayer of cells, and incubated at 37 °C in 5% CO2 for 24 hr. Percentage survival was calculated by comparison to DMSO-treated vehicle controls. Assays were carried out in triplicate.

[5] = tested on: clinical S. aureus isolate BF4; experiment: Broth microdilution MIC, clinical S. aureus isolate BF4; format: cell-based; conditions: Staphylococcus aureus; BF4; read-out: MIC
Description: as §1

[6] = tested on: MRSA MW2; experiment: Broth microdilution antibacterial susceptibility (MIC/MBC), MRSA MW2; format: cell-based, Staphylococcus aureus; conditions: for MBC: MRSA MW2
Description: as §1

[7] = tested on: A549; conditions: human, 24 h
Description: as §2

[8] = tested on: Pseudomonas aeruginosa; experiment: Broth microdilution MIC, Pseudomonas aeruginosa; format: cell-based; conditions: read-out: MIC
Description: as §1

[9] = tested on: Acinetobacter baumannii; experiment: Broth microdilution MIC, Acinetobacter baumannii; format: cell-based; conditions: read-out: MIC
Description: as §1

MIC [2]: 2 µg/mL (≈ 4.2 µM)
MIC [3]: 2 µg/mL (≈ 4.2 µM)
MIC [5]: 2 µg/mL (≈ 4.2 µM)
MIC ([6]; Staphylococcus aureus, MRSA MW2, 18 h, 37 °C, read-out: MIC): 2 µg/mL (≈ 4.2 µM)
MIC [8]: > 64 µg/mL
MIC [9]: 32 µg/mL (≈ 67.2 µM)
Structure (SMILES): Cc1cc(I)ccc1Nc1c(C(=O)NOCC2CC2)cc(F)c(F)c1F [PD198306, N-(Cyclopropylmethoxy)-3,4,5-trifluoro-2-[(4-iodo-2-methylphenyl)amino]-benzamide]
Z-Score [1]: 3.43
Eukaryotic cell cytotoxicity [4]: 16 µg/mL
MBC [6]: >64 µg/mL
MBC ([6]; Staphylococcus aureus, read-out: MBC): > 64 µg/mL
Eukaryotic cell cytotoxicity [7]: 16 µg/mL
